In US20020058686A1, “Medicament” (SmithKline Beecham p.l.c., priority 1990, published 2002):

Row | melting point [°C] | Compound
1 | 178 to 181 | CCCSc1ncc(C[C@H](NC(=O)CCC)C(=O)O)n1Cc1ccccc1Cl [Example 1, 3-[(2-Chlorophenyl)methyl]-2-propylthio-N-butyrylhistidine]
2 | 254 to 255 | CCCCc1nc2cc(Br)cc(C(=O)O)c2n1Cc1ccccc1Cl [Example 4, 5-Bromo-2-n-butyl-1-(2-chlorophenyl)methyl-1H-benzimidazole-7-carboxylic Acid]
